Reference: PubChem BioAssay (NCI)
Values joined by “and” are separate entries in the source; they are usually repeats but may differ in a detail not shown here. Equal values may be shown once.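 Assay format: 96-well plates, 48-hour exposure. GI50: concentration for 50% inhibition of growth. TGI marks complete inhibition of growth.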

What was measured:
Experiment in all cases: inhibition of tumour cell growth, NCI panel, 48 h
HL-60(TB) leukemia = tested on: HL-60(TB) leukemia
HT29 colon = tested on: HT29 colon
K-562 leukemia = tested on: K-562 leukemia
KM12 colon = tested on: KM12 colon
NCI-H23 lung = tested on: NCI-H23 lung
NCI-H460 lung = tested on: NCI-H460 lung
SF-539 CNS = tested on: SF-539 CNS
SK-MEL-2 melanoma = tested on: SK-MEL-2 melanoma
SN12C renal = tested on: SN12C renal
SNB-75 CNS = tested on: SNB-75 CNS

SMILES	GI50 (HL-60(TB) leukemia) [µM]	TGI (HL-60(TB) leukemia)	GI50 (HT29 colon) [µM]	TGI (HT29 colon)	GI50 (K-562 leukemia) [µM]	TGI (K-562 leukemia)	GI50 (KM12 colon) [µM]	TGI (KM12 colon)	GI50 (NCI-H23 lung) [µM]	TGI (NCI-H23 lung)	GI50 (NCI-H460 lung)	TGI (NCI-H460 lung)	GI50 (SF-539 CNS)	TGI (SF-539 CNS)	GI50 (SK-MEL-2 melanoma)	TGI (SK-MEL-2 melanoma)	GI50 (SN12C renal)	TGI (SN12C renal)	GI50 (SNB-75 CNS)	TGI (SNB-75 CNS) [µM]
Fc1ccc2[nH]cc(Cc3c[nH]c4ccc(F)cc34)c2c1	37.4	> 100 µM	31.4	> 100 µM	32.4	> 100 µM	12	30.2 µM	22.2	53.5 µM	25.3 µM	> 100 µM	15.7 µM	33.6 µM	19.8 µM	46.1 µM	21.6 µM	51.4 µM	29 µM	85.6
CCc1ccc(NCc2cc(OC)c(OC)c(OC)c2)cc1		7.94 µM and 5.38 µM		1.72 µM and 1.39 µM	0.111	26.4 µM and 52.4 µM		20.8 µM and 13.8 µM		24.8 µM and 15.1 µM	0.268 µM and 0.127 µM	25.1 µM and 17 µM	0.296 µM and 0.107 µM	1.02 µM and 0.814 µM	0.255 µM and 0.106 µM	23.9 µM and > 54 µM	0.578 µM and 1.16 µM	38.4 µM and > 68.7 µM	0.387 µM and 0.882 µM	> 100
CC(C)(C(=O)NN)c1ccccc1		> 100 µM		> 100 µM		> 100 µM		> 100 µM		> 100 µM		> 100 µM		> 100 µM		> 100 µM		> 100 µM		> 100
O=C(CCl)c1ccc([N+](=O)[O-])o1	1.64		2.76	8.99 µM	1.18	> 19.8 µM	2.02	4.6 µM	4.94	26 µM	10.3 µM	28.1 µM	2.28 µM	5.03 µM	6.81 µM	27.4 µM	2.38 µM	7.27 µM	3.06 µM	9.16
COc1cc2nc(Cl)nc(Nc3cccc(C(=O)/C=C/c4ccccc4)c3)c2cc1OC	3.61	> 100 µM	4.39	> 100 µM	1.74	> 100 µM	2.45	> 100 µM	6.63	> 100 µM	4.2 µM	> 100 µM	3.82 µM	19.2 µM	> 21 µM	> 75.9 µM	3.98 µM	41.1 µM	2.06 µM	8.61
CC12CCC(=O)C(O1)C1C(=O)c3cc4ccccc4cc3C(=O)C12 (stereo not given)	19.5	48 µM	21	51.1 µM	16	41.5 µM	12.5	29.5 µM	15.8	31.6 µM	14 µM	51 µM	21.8 µM	59.3 µM	46.4 µM	> 100 µM	16.5 µM	36.4 µM	29.2 µM	> 100
N#CSc1ncnc2nc[nH]c12	5.5	> 100 µM	9.69	> 100 µM	1.24	> 100 µM	3.26	> 48.5 µM	9.96	> 100 µM	17.3 µM	> 100 µM	4.14 µM	> 65.9 µM	37.6 µM	> 100 µM	51.7 µM	> 100 µM	7.19 µM	> 100
N#Cc1ncc(/N=C/c2ccc(N(CCCl)CCCl)cc2)s1	7.44	> 100 µM	72.8	> 100 µM	7.51	> 100 µM	76.5	> 100 µM	5.53	> 100 µM	3.31 µM	66.8 µM	16.8 µM	> 100 µM	69.9 µM	> 100 µM	8.28 µM	> 100 µM	17.6 µM	> 100
NC(=O)OCC(COc1ccc(Cl)cc1)OC(=O)c1ccccc1Cl (stereo not given)		41.5 µM		33.2 µM		39.4 µM		45.5 µM		44.8 µM		30.9 µM		36.1 µM		34.1 µM		34 µM		> 100
O=C1C(Cl)=C(N/N=c2/[nH][nH]/c(=N/NC3=C(Cl)C(=O)c4ccccc4C3=O)c3ccccc23)C(=O)c2ccccc21	8.45	34.2 µM	24.9	53.6 µM	3.23	13.9 µM	5.16	20.7 µM	17.3	36.9 µM	19.7 µM	49.5 µM	15.6 µM	31.7 µM	18.1 µM	35.9 µM	15 µM	29.5 µM	1.49 µM	15.3
